Laboratory results from article PMC8085013, “Mixture interactions at mammalian olfactory receptors are dependent on the cellular environment” (Scientific Reports, 2021).
Each block holds one compound with its values, some of them ahead of it.

Columns and labels:
[1] = tested on: endogenous adrenergic receptors; experiment: Isoproterenol saturating control in the cAMP/CNGCmut calcium influx assay in HEK293 cells; format: cell-based; conditions: 10 µM, applied for 5-min
Protocol: Calcium imaging was performed as described previously. HEK293 cells were incubated (30 min/37 °C) in a DMEM containing 6–8 µM Fluo-4/AM (Invitrogen) or Fluo-2/AM (TefLabs) containing 0.04% Pluronic F127. Activity of cells expressing untagged ORs from the bicistronic pTR plasmid was reported by expressed GCaMP3. Odorant solutions were applied sequentially to the cells for 5 s with a 3 min interval between each application to allow recovery from desensitization resulting from previous application of odorants. In the case of prolonged 10-min stimulation, the cells were allowed to recover for at least 10 min before adding a binary mix or isoproterenol alone, activating endogenous production of cAMP. Cells growing either on a 35-mm plastic dish or on a round poly-L-lysine coated cover glass were transferred to the stage of an inverted microscope (Axiovert 200, Zeiss) equipped with a 10x/0.5NA Fluar objective. Odorants were applied to the cells as a 5-s long pulse using a computer-controlled fast perfusion system (RSC-200, BioLogic, France) ensuring precise delivery of the stimulus with a minimal time lag. The perfusion system was controlled by Clampex 9.2 or 10.2 software (Molecular Devices). In some experiments, cells were pre-incubated with a putative antagonist for 30-s before applying a 5-s pulse of agonist. […]

[2] = target: T1, mouse Olfr73 (Mus musculus, UniProt Q920P2); design: method as in PMID 25149566; conditions: starred cells, previously published in vitro work under the same conditions ref 25; cited from earlier work
T1 sequence (Q920P2 1-313): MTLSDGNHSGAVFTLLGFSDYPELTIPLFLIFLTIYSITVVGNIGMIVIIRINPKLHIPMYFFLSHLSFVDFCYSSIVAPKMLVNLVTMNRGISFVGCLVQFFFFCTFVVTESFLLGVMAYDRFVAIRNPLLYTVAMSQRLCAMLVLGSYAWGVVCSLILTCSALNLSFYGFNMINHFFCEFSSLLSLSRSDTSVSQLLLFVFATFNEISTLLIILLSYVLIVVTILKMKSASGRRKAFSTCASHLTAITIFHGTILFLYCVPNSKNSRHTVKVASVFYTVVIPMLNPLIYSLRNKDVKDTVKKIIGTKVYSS

[3] = target: T1, mouse Olfr73; experiment: GCaMP3 calcium imaging of rat OSNs ectopically expressing Olfr73 (rAAV2/5), 5-s odorant pulse; format: cell-based; conditions: 5-s pulse
[4] = target: T1, mouse Olfr73; design: method as in PMID 25149566; conditions: starred cells, previously published in vitro work under the same conditions ref 25; cited from earlier work; remark: listed apart in the source
[5] = target: T1, mouse Olfr73; experiment: GCaMP3 calcium imaging of mouse OSNs ectopically expressing Olfr73 (rAAV2/5), 5-s odorant pulse; format: cell-based; conditions: 5-s pulse
[6] = target: T2, Olfr599 (Mus musculus, UniProt Q8VG01); experiment: GCaMP3 calcium imaging of mouse OSNs ectopically expressing Olfr599 (rAAV2/5); format: cell-based; conditions: each at 100 µM, 5-s pulse
T2 sequence (Q8VG01 entry or part of it): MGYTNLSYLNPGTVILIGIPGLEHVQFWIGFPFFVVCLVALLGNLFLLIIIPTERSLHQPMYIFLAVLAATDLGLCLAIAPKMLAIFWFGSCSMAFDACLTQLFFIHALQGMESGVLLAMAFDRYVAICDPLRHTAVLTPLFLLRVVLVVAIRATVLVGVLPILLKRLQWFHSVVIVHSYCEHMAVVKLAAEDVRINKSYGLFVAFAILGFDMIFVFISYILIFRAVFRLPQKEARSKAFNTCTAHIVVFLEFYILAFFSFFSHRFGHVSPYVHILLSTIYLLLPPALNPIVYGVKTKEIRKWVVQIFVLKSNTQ
Protocol: Animals 4–6 weeks of age were used for experiments 7–21 days post-inoculation with rAAV2/5 encoding OR-furin2A-GCaMP3. Calcium imaging was performed as detailed previously. Tissue was prepared and mounted with the apical surface facing up. The chamber was transferred to the stage of an upright microscope (Zeiss Axioskop-2F) equipped with a 40×/0.75NA long distance water-immersion objective lens. Experimental solutions were applied for a duration of 5 s directly to the field of view through a 100 µm diameter needle made of fused silica and connected to a 9-channel Teflon manifold. Solution application was controlled by electronic valves (VC-6, Warner Instruments). The calcium response is presented as an increase of GCaMP3 fluorescence originating from the knob and underlying dendrite. The tissue was illuminated using a standard eGFP filter cube BP490 nm/ 535 nm (Omega Optical, USA) and the emitted light was collected at 530 nm (BP 530/20 nm, Omega Optical, USA) by a 12-bit cooled CCD camera (ORCA R2, Hamamatsu, Japan). […] Before processing, fluorescence intensity was corrected for the background. Each knob was assigned a region of interest (ROI) and changes in fluorescence intensity within each ROI were analyzed and expressed as the peak fractional change in fluorescent light intensity (F-Fo)/Fo where Fo is the baseline fluorescence before application of experimental solutions.

[7] = target: T2, Olfr599; experiment: Calcium imaging of HEK293 cells expressing Olfr599; format: cell-based
Protocol: Heterologous expression of mouse ORs was based on the previously published method. HEK293 (ATCC CRL-1537) or HEK293T (ATCC CRL-3216) cells were grown in a high glucose […] (DMEM) supplemented with 10% FBS, penicillin and streptomycin, and 2 mM L-glutamine and maintained at 37 °C (5% CO2). A rhodopsin-tagged mouse olfactory receptor Olfr73 and Olfr599 (provided by Dr. Matsunami, Duke University) was co-expressed with RTP1s, a short version of the Receptor Transporting Protein 1 ensuring proper surface trafficking of the receptor (provided by Dr. Touhara, University of Tokyo). To reconstitute different G-protein coupled signaling pathways, one of the three G-proteins was co-expressed along with the OR and RTP1s, promiscuous mouse Gα15 (Thermo Scientific Open Biosystems), heterotrimeric Gαq11/ß1/γ13, both coupled to endogenous PLC/calcium release, and human Gαolf (Missouri S&T cDNA Resource Center). To assay activity-dependent accumulation of cAMP generated by activation of the Gs/Golf pathway, the cells were additionally co-transfected with a mutated A2 subunit of the rat olfactory cyclic nucleotide gated channel (CNGCmut). Two mutations C460W and E583M ensured high sensitivity and selectivity of the channel to cAMP (a gift from Dr. Rich, University of South Alabama). Transfections were performed using Calfectin (SignaGen). […]

Compound: CC(C)NCC(O)c1ccc(O)c(O)c1 (stereo not shown) [Isoproterenol]
cAMP-dependent response [1]: robust sustained response

Agonism/antagonism, OSN Ca2+ Rat ([3]; strong agonist 100 µM, putative antagonist 1 mM): Agonist
Response to ligand applied alone ([3]; rat Olfr73-OSNs): lower than that to eugenol
Agonism/antagonism, OSN Ca2+ Mouse ([5]; strong agonist 100 µM, putative antagonist 1 mM, single or as pair): Agonist
Response relative to the response to eugenol ([5]; ligand 1 mM, Olfr73-OSNs): 50%
Response to ligand applied alone ([5]; mouse Olfr73-OSNs): weak agonist
Compound: C=C(C)[C@@H]1CCC2=CC(=O)C[C@@H](C)[C@]2(C)C1 [Nootkatone, nootkatone]
Agonism/antagonism, HEK293 short odor Ca2+ G15 [2]: Inactive*
Agonism/antagonism, HEK293 short odor Ca2+ Gs/olf [4]: Inactive*

Compound: CCCCCCCC(=O)O [Octanoic acid]
Response to ligand applied alone [6]: evoked reliable neuronal responses
Response to ligand applied alone ([7]; HEK293, Olfr599 with Gαq11/ß1/γ13, 100 µM): robust activation
EC50 ([7]; HEK293 cells, Olfr599): 70 µM

Compound: isoeugenol
Agonism/antagonism, HEK293 short odor Ca2+ G15 [2]: Agonist*
Agonism/antagonism, HEK293 short odor Ca2+ Gs/olf [4]: Agonist*
